# Literature values, collected in patent US20090004360A1, “Taste Potentiator Compositions in Oral Delivery Systems” (CADBURY ADAMS USA LLC, priority 2007, published 2009).
# Peptide text beside a SMILES is read from it.
# Columns and labels:
# [1] = not given; remark: listed apart in the source
compound,measurement,setting,value
"O=C(O)c1ccc(O)cc1O [2,4-DHB, 2,4-Dihydroxybenzoic acid]",effect on sweetness of a sucrose solution,"0.2% added to a 5% sucrose solution, Canadian Patent No. 1208966",increase in sweetness
same,effect on the sweetness intensity of both sucralose and aspartame,"FIGS. 1 and 2 and Tables 1 and 2 of U.S. Pat. No. 6,461,658",slightly inhibitory effect
same,effect on sweetness of aspartame,"used with aspartame, WO99/15032",increase sweetness synergistically
same,length of time during which sucralose sweetness is perceived,"with sucralose, U.S. Pat. No. 6,461,658",significantly reducing the length of time
"COC(=O)[C@H](Cc1ccccc1)NC(=O)[C@@H](N)CC(=O)O [aspartame, L-aspartyl-L-phenylalanine methyl ester] (HELM PEPTIDE1{D.F.[CO[*:1]]}$$$$V2.0)",sweetness relative to sucrose,"[1]; recognized value, 0.05 g in 100 ml isosweet to 10 g sucrose in 100 ml",200 times
"O=C(O)c1cccc(O)c1 [Example 3-HB, 3-hydroxybenzoic acid]","effect on sweetness of sucrose, aspartame and saccharin","pH 2.0 to 5.5, European Patent No. 0132444 and U.S. Pat. No. 4,627,987",enhance sweetness
OCC(O)CO [Glycerin],sweetness relative to cane sugar,[1]; in vivo,about 60%
